According to patent US7297708B2, “Heteroaromatic substituted cyclopropane as corticotropin releasing hormone ligands” (Bristol-Myers Squibb Company, priority 2001, dated 2007):

COc1ccccc1C1(c2ncc(C)c(-c3ccc(Cl)cc3Cl)n2)CC1 [Compound 11, 4-(2,4-Dichloro-phenyl)-2-[1-(2-methoxy-phenyl)-cyclopropyl]-5-methyl-pyrimidine]
melting point: 46 to 48 °C
